Reference: BindingDB's records for doi:10.1016/j.ejmech.2023.115229 (Sichuan University, 2023)

Target: Ribosomal protein S6 kinase alpha-2 (Homo sapiens, UniProt Q15349)
Assay: Inhibition of RSK3 (unknown origin)

Chain of Ribosomal protein S6 kinase alpha-2 (Q15349 whole entry): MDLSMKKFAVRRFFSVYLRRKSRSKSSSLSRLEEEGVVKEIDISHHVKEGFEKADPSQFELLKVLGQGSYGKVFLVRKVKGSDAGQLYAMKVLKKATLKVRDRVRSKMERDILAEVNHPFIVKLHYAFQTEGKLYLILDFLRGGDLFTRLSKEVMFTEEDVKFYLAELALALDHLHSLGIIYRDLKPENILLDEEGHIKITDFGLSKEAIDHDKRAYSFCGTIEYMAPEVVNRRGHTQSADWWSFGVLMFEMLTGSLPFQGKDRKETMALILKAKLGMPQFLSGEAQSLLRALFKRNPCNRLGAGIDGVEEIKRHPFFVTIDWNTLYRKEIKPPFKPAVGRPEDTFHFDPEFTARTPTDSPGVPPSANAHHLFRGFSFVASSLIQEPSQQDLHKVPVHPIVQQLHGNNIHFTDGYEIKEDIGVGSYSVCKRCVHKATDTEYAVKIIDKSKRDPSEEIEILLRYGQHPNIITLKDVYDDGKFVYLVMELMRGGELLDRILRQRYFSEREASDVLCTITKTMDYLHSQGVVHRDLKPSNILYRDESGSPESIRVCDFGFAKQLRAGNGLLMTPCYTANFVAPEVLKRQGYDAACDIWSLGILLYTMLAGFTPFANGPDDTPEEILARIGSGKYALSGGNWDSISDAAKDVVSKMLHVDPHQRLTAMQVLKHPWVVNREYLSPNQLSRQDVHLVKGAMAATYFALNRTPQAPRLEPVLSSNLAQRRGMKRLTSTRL

- IC50: 891 nM
SMILES: O=c1c(O)c(-c2ccc(O)c(O)c2)oc2cc(O)ccc12 [2-(3,4-dihydroxyphenyl)-3,7-dihydroxy-chromen-4-one]
